Test results taken from ChEMBL document CHEMBL1148788 (J Med Chem, 2007).

Key:
[1] = biological target: Neuronal acetylcholine receptor; alpha4/beta2 (Rattus norvegicus, UniProt P09483+P12390); experiment: Displacement of [3H]epibatidine from rat recombinant alpha-4-beta-2 nAChR in HEK293 cell line; format: cell-based; conditions: for pKi: hek293; for Ki: read-out: Ki
[2] = biological target: T1, Neuronal acetylcholine receptor; alpha3/beta4 (Rattus norvegicus, UniProt P04757+P12392); experiment: Displacement of [3H]epibatidine from recombinant rat alpha-3-beta-4 nAChr in HEK293 cell line; format: cell-based; conditions: for pKi: hek293
T1 sequence (P04757 whole entry): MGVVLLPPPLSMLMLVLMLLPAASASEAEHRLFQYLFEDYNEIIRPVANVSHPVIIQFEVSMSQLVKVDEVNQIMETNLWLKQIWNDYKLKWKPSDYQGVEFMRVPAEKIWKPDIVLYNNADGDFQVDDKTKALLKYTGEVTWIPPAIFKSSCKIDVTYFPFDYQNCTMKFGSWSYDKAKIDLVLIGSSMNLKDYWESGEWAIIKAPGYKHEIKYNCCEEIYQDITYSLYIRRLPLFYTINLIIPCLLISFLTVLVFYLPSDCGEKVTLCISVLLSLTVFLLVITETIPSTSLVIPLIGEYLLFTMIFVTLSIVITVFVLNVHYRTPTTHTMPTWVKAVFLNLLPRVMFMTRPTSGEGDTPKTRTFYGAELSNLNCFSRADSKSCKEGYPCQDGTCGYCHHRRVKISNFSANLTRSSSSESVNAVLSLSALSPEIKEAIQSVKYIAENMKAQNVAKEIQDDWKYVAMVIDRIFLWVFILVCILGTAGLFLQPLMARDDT
T1 sequence (P12392 whole entry): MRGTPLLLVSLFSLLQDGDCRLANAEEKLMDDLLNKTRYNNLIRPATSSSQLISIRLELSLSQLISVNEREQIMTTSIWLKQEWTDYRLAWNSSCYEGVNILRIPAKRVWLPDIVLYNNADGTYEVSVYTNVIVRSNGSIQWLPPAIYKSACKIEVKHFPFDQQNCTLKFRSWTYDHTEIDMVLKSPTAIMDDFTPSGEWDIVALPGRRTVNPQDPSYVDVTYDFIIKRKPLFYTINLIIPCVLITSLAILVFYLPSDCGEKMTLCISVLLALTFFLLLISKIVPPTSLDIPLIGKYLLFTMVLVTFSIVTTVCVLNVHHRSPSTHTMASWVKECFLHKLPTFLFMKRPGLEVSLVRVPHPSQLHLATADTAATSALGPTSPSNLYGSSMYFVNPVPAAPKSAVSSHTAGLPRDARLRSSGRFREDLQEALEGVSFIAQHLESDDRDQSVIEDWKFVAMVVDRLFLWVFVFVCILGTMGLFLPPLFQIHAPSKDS

[3] = biological target: Neuronal acetylcholine receptor; alpha4/beta4 (Rattus norvegicus, UniProt P09483+P12392); experiment: Displacement of [3H]epibatidine from recombinant rat alpha-4-beta-4 nAChr in HEK293 cell line; format: cell-based; conditions: for pKi: hek293
Chain of Neuronal acetylcholine receptor; alpha4/beta4 (P09483 whole entry): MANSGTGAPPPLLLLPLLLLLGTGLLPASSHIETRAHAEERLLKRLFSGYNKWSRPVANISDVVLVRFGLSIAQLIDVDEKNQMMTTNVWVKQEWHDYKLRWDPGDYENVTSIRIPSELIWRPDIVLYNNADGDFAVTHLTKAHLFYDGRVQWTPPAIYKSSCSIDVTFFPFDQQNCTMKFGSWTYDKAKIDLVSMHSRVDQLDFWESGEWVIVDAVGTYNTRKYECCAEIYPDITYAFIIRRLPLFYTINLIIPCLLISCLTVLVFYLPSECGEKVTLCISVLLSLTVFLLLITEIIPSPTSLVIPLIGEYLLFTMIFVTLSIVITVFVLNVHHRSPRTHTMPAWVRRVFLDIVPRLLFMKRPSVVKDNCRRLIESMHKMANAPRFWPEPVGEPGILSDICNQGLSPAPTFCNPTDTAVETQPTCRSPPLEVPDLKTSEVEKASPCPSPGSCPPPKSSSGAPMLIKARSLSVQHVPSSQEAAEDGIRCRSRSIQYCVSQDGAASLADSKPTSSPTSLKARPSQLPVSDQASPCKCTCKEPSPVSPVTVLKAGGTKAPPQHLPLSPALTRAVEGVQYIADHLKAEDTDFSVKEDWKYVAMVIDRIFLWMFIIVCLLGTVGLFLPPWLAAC
Chain of Neuronal acetylcholine receptor; alpha4/beta4 (P12392 whole entry): as the sequence (P12392 whole entry) above

[4] = biological target: T2, Neuronal acetylcholine receptor subunit alpha-7 (Homo sapiens, UniProt P36544); experiment: Displacement of [3H]methyllycaconitine from human alpha-7 in tsA201 cells coexpressed with 5HT3A receptor; format: cell-based
T2 sequence (P36544 whole entry): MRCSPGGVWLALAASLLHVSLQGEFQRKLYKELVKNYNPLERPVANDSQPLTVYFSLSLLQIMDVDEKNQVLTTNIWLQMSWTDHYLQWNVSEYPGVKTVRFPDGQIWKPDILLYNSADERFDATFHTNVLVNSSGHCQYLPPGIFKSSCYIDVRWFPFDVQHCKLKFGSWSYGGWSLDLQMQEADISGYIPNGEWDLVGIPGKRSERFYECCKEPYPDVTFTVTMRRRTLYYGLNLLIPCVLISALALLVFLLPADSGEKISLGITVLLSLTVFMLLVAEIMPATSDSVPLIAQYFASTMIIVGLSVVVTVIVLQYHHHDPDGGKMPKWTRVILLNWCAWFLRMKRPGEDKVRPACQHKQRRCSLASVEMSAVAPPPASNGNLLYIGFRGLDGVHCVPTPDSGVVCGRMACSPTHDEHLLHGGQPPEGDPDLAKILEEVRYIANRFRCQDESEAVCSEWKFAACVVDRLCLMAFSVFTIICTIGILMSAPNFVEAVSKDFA

[5] = biological target: T2, Neuronal acetylcholine receptor subunit alpha-7; experiment: Displacement of [3H]methyllycaconitine from alpha7 nAChR in tsA201 cells co-expressed with Ric3; format: cell-based
[6] = biological target: T3, 5-hydroxytryptamine receptor 3A (Homo sapiens, UniProt P46098); experiment: Displacement of [3H]GR65630 from human 5HT3A receptor in HEK293 cells; format: cell-based
T3 sequence (P46098 whole entry): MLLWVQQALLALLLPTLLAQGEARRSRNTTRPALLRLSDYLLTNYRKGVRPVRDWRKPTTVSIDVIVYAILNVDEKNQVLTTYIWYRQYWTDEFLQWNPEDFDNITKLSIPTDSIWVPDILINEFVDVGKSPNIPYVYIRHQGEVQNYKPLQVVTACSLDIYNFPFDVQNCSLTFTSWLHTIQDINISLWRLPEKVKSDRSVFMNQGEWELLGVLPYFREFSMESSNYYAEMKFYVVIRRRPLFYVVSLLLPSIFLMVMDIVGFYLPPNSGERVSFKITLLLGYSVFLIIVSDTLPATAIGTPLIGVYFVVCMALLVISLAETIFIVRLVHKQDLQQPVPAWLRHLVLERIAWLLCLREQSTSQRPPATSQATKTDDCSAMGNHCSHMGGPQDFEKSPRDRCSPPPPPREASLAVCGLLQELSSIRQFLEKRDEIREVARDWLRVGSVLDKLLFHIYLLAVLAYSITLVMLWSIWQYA

[7] = biological target: T2, Neuronal acetylcholine receptor subunit alpha-7; experiment: Antagonist activity at human alpha-7 nAChR in tsA201 cells coexpressed with Ric3 by FMP assay; format: functional, cell-based
[8] = biological target: T1, Neuronal acetylcholine receptor; alpha3/beta4; experiment: Antagonist activity at rat alpha3beta4 nAChR expressed in HEK293 cells by FMP assay; format: functional, cell-based, Homo sapiens; conditions: for pIC50: hek293; for IC50: read-out: IC50
[9] = biological target: T3, 5-hydroxytryptamine receptor 3A; experiment: Antagonist activity at human 5HT3A receptor expressed in HEK293 cells by FMP assay; format: functional, cell-based
cells = format: functional, cell-based; conditions: Homo sapiens, HEK293
[10] = biological target: T4, Glycine receptor subunit alpha-1 (Homo sapiens, UniProt P23415); experiment: Antagonist activity at human glycine alpha-1 receptor in HEK293 cells by FMP assay; format: functional, cell-based; conditions: for pIC50: hek293
T4 sequence (P23415 whole entry): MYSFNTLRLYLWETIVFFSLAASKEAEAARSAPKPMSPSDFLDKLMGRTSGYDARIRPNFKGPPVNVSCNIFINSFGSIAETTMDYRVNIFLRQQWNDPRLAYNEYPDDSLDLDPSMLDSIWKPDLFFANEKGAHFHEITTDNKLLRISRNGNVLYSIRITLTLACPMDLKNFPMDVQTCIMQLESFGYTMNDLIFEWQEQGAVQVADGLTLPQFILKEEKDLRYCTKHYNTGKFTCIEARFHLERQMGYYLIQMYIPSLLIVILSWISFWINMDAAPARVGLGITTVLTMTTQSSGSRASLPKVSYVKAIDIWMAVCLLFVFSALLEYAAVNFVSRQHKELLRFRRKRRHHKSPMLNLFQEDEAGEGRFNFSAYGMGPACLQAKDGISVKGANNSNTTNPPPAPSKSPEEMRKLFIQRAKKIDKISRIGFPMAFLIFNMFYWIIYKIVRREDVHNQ

Chain of Neuronal acetylcholine receptor; alpha4/beta2 (P09483 whole entry): as the sequence (P09483 whole entry) above
Chain of Neuronal acetylcholine receptor; alpha4/beta2 (P12390 whole entry): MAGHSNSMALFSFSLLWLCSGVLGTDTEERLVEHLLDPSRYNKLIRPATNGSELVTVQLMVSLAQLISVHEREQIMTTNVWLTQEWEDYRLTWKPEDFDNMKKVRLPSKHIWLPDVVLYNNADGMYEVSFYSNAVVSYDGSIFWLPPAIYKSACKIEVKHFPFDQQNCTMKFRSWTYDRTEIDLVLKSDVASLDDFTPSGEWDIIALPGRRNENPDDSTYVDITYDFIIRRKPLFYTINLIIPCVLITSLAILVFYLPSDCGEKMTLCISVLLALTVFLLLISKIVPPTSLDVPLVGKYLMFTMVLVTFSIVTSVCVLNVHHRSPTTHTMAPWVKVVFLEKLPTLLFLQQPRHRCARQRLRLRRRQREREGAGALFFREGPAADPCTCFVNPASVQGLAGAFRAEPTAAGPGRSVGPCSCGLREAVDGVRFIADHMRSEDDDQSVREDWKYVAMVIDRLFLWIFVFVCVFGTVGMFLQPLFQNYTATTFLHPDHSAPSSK

Row | SMILES | pKi [1] | Ki [1] | Ki [2] | pKi [2] | Ki [3] | pKi [3] | Ki ([4]; read-out: Ki) | Ki ([4]; read-out: pKi (converted)) | Ki ([5]; read-out: Ki) | Ki ([5]; read-out: pKi (converted)) | Ki [6] | IC50 ([7]; read-out: IC50) | IC50 ([7]; read-out: pIC50 (converted)) | pIC50 [8] | IC50 [8] | IC50 ([9]; read-out: IC50) | IC50 (cells; read-out: IC50) | IC50 (cells; read-out: pIC50 (converted)) | IC50 [10] | pIC50 [10] | also measured
1 | C=CC[N+](C)(C)Cc1c2n(c3ccccc13)Cc1c(C[N+](C)(C)CC=C)c3ccccc3n1C2.[Br-].[Br-] | < 4 | > 100 µM | > 100 µM | < 4 | > 100 µM | < 4 | 4.4 µM | 3.98 µM | 2.9 µM | 3.16 µM | > 100 µM | 30 µM | 100 µM | < 4 | > 100 µM | > 100 µM | > 100 µM | > 100 µM | > 100 µM | < 4 | pKi ([6]; hek293): < 4; pIC50 ([9]; hek293): < 4
2 | C1=C2CN3CC[C@@H]4[C@@H]5[C@H]([C@@H](OC1)N1c6ccccc6[C@@]67CCN8CC9=CCO[C@H]([C@@H]([C@H]16)[C@H]9C[C@H]87)N5c1ccccc1)[C@H]2C[C@@H]43 | < 4 | > 100 µM | 30 µM | – | > 100 µM | < 4 | 1.1 µM | – | 1.1 µM | 1 µM | 3.1 µM | 1.6 µM | 1.58 µM | – | 11 µM | 11 µM | > 100 µM | > 100 µM | > 100 µM | < 4 | IC50 ([9]; read-out: pIC50 (converted)): 12.6 µM
3 | O=[N+]([O-])c1ccc(C[N+]23CCC4[C@@H]5/C(=C\N6c7ccccc7[C@@]78CC[N+]9(Cc%10ccc([N+](=O)[O-])cc%10)CC%10=CCO[C@H]([C@@H]([C@H]67)[C@H]%10C[C@@H]89)N5c5ccccc5)[C@@H](C[C@@H]42)/C(=C\CO)C3)cc1.[Br-].[Br-] (stereo partly drawn) | < 4 | > 100 µM | > 100 µM | < 4 | > 100 µM | < 4 | 0.11 µM | 0.126 µM | 0.098 µM | 0.1 µM | 100 µM | 2.5 µM | 2.45 µM | < 4 | > 100 µM | 30 µM | > 100 µM | > 100 µM | > 100 µM | < 4 | –
4 | OC/C=C1/CN2CC[C@H]3[C@@H]2C[C@@H]1/C1=C/N2c4ccccc4[C@@]45CCN6CC7=CCO[C@H]([C@@H]([C@H]24)[C@H]7C[C@H]65)N(c2ccccc2)[C@@H]13 | < 4 | > 100 µM | 30 µM | – | > 100 µM | < 4 | 1.2 µM | 1.26 µM | 1.7 µM | 1.58 µM | 1.9 µM | 1.5 µM | 1.51 µM | – | 16 µM | 2.5 µM | > 100 µM | > 100 µM | > 100 µM | < 4 | –
5 | COc1ccc(C[N+]23CC[C@@H]4[C@@H]5[C@@H]6[C@@H](OCC=C(C2)[C@@H]6C[C@@H]43)N2c3ccccc3[C@@]34CC[N+]6(Cc7ccc(OC)c(OC)c7)CC7=CCO[C@H]([C@@H]([C@H]23)[C@H]7C[C@@H]46)N5c2ccccc2)cc1OC.[Cl-].[Cl-] (stereo partly drawn) | < 4 | > 100 µM | > 100 µM | < 4 | > 100 µM | < 4 | 0.13 µM | 0.126 µM | 0.059 µM | 0.0631 µM | 28 µM | 1.3 µM | 1.32 µM | < 4 | > 100 µM | 30 µM | > 100 µM | > 100 µM | > 100 µM | < 4 | –
